Test results published in PubChem BioAssay AID330 (DTP/NCI, 2004).
Several values for one entry are separate records, joined by “and”; a condition that tells them apart may be missing. Equal entries are not always repeated. Inconclusive results and toxic doses are left out.

System: P388 leukemia ip, CD2F1 mice, survival T/C
Assay: NCI In Vivo Anticancer Drug Screen. Data for tumor model P388 Leukemia (intraperitoneal) in CD2F1 (CDF1) mice
Settings: endpoint: median survival time, higher = longer survival
How it was run: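 Mice carrying the transplanted tumor received test compound or vehicle. Survival was recorded in each group, and the value is the treated-group measurement divided by that of the vehicle-treated control group.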

[1] = dose: 50.0 mg/kg/injection, schedule: Q01DX009 (ip), vehicle: saline with Tween-80
[2] = dose: 100.0 mg/kg/injection, schedule: Q01DX009 (ip), vehicle: saline with Tween-80
[3] = dose: 100.0 mg/kg/injection, schedule: Q01DX009 (ip), vehicle: Klucel (hydroxypropylcellulose) (HPC)
[4] = dose: 200.0 mg/kg/injection, schedule: Q01DX009 (ip), vehicle: Klucel (hydroxypropylcellulose) (HPC)
[5] = dose: 6.25 mg/kg/injection, schedule: Q01DX009 (ip), vehicle: saline

Q: How did the T/C (dose: 0.1 mg/kg/injection, schedule: Q01DX005 (ip), vehicle: water) turn out when `O=C1c2ccc(Cl)cc2NC(O)c2cccn21` (stereo unspecified) was run?
A: Its T/C is 99 % of control.

Q: What about the T/C (dose: 0.2 mg/kg/injection, schedule: Q01DX005 (ip), vehicle: water) of the same compound?
A: The T/C was 98 % of control.

Q: What about the T/C (dose: 0.4 mg/kg/injection, schedule: Q01DX005 (ip), vehicle: water) of the same compound?
A: Its T/C is 98 % of control.

Q: What about the T/C (dose: 0.8 mg/kg/injection, schedule: Q01DX005 (ip), vehicle: water) of the same compound?
A: The T/C was 100 % of control.

Q: And the T/C (dose: 1.6 mg/kg/injection, schedule: Q01DX005 (ip), vehicle: water)?
A: Its T/C is 98 % of control.

Q: And the T/C (dose: 5.0 mg/kg/injection, schedule: Q01DX005 (ip), vehicle: distilled water + Tween-80)?
A: The T/C was 95 % of control.

Q: And the T/C (dose: 10.0 mg/kg/injection, schedule: Q01DX005 (ip), vehicle: distilled water + Tween-80)?
A: Its T/C is 99 % of control.

Q: What about the T/C (dose: 20.0 mg/kg/injection, schedule: Q01DX005 (ip), vehicle: distilled water + Tween-80) of the same compound?
A: The T/C was 100 % of control.

Q: What about the T/C (dose: 40.0 mg/kg/injection, schedule: Q01DX005 (ip), vehicle: distilled water + Tween-80) of the same compound?
A: Its T/C is 93 % of control.

Q: What about the T/C (dose: 80.0 mg/kg/injection, schedule: Q01DX005 (ip), vehicle: distilled water + Tween-80) of the same compound?
A: Its T/C is 98 % of control.

Q: Which T/C [1] does the source give for `CCCCCCC(=O)/C=C/c1ccc2c(c1)OCO2` here?
A: The T/C was 96 % of control.

Q: And the T/C [2]?
A: The T/C was 102 % of control.

Q: And the T/C (dose: 200.0 mg/kg/injection, schedule: Q01DX009 (ip), vehicle: saline with Tween-80)?
A: Its T/C is 91 % of control.

Q: How did the T/C (dose: 50.0 mg/kg/injection, schedule: Q01DX009 (ip), vehicle: saline) turn out when `FC(F)(F)c1ccc(Cl)c(NC(=S)SC2CCCCC2)c1` was run?
A: The T/C was 100 % of control.

Q: And the T/C (dose: 100.0 mg/kg/injection, schedule: Q01DX009 (ip), vehicle: saline)?
A: The T/C was 100 % of control.

Q: What about the T/C (dose: 200.0 mg/kg/injection, schedule: Q01DX009 (ip), vehicle: saline) of the same compound?
A: Its T/C is 97 % of control.

Q: Which T/C (dose: 60.0 mg/kg/injection, schedule: Q01DX005 (ip), vehicle: saline with Tween-80) does the source give for `C=C1C(OC(=O)c2ccccc2)C2[C@@H](OC(=O)CC)[C@@H](C)C[C@]2(O)C(=O)[C@@H](C)/C=C/C(C)(C)C(=O)C(O)[C@H]1OC(=O)C(C)C` (stereo partly specified) here?
A: The T/C was 102 % of control.

Q: And the T/C (dose: 120.0 mg/kg/injection, schedule: Q01DX005 (ip), vehicle: saline with Tween-80)?
A: The T/C was 91 % of control.

Q: With `CC(=O)/C(=C\c1cccs1)C(=O)CCN(C)C` as the compound, how does the T/C (dose: 60.0 mg/kg/injection, schedule: Q01DX005 (ip), vehicle: saline) read?
A: The T/C was 106 % of control and 111 % of control.

Q: What about the T/C (dose: 120.0 mg/kg/injection, schedule: Q01DX005 (ip), vehicle: saline) of the same compound?
A: The T/C was 113 % of control and 122 % of control.

Q: And the T/C (dose: 240.0 mg/kg/injection, schedule: Q01DX005 (ip), vehicle: saline)?
A: Its T/C is 91 % of control.

Q: What does the source list for `C(=C\c1ccncc1)/c1ccncc1`?
A: T/C (dose: 12.5 mg/kg/injection, schedule: Q01DX009 (ip), vehicle: saline with Tween-80): 90 % of control; T/C (dose: 25.0 mg/kg/injection, schedule: Q01DX009 (ip), vehicle: saline with Tween-80): 90 % of control; T/C [1]: 101 % of control; T/C [3]: 89 % of control; T/C [2]: 107 % of control; T/C [4]: 92 % of control

Q: Which results are given for `CCCCCNC(=O)CCC(NC(=O)c1ccc(N(C)Cc2cnc3nc(N)nc(N)c3n2)cc1)C(=O)O` (stereo unspecified)?
A: T/C (dose: 200.0 mg/kg/injection, schedule: Q01DX009 (ip), vehicle: sodium bicarbonate): 155 % of control; T/C (dose: 400.0 mg/kg/injection, schedule: Q01DX009 (ip), vehicle: sodium bicarbonate): 91 % of control

Q: With `CC(=O)SC1C(=O)N(C)C(SC(C)=O)C(=O)N1C` (stereo unspecified) as the compound, how does the T/C [5] read?
A: Its T/C is 107 % of control.

Q: And the T/C (dose: 12.5 mg/kg/injection, schedule: Q01DX009 (ip), vehicle: saline)?
A: Its T/C is 110 % of control.

Q: Which results are given for `[NH-]C(Cc1cnc[n-]1)C(=O)O.[NH-]C(Cc1cnc[n-]1)C(=O)O.[O]=[Mo]1[O][Mo](=[O])[O]1` (stereo unspecified)?
A: T/C (dose: 50.0 mg/kg/injection, schedule: Q01DX009 (ip), vehicle: suspension in saline): 99 % of control; T/C (dose: 100.0 mg/kg/injection, schedule: Q01DX009 (ip), vehicle: suspension in saline): 99 % of control; T/C (dose: 200.0 mg/kg/injection, schedule: Q01DX009 (ip), vehicle: suspension in saline): 99 % of control

Q: What does the source list for `CCOC(=O)C(C#N)(CCC(=NC(C)(C)C)Nc1ccccc1C#N)CCC(=NC(C)(C)C)Nc1ccccc1C#N` (stereo unspecified)?
A: T/C [1]: 100 % of control; T/C [2]: 94 % of control

Q: Which results are given for `O=C(CCl)NC(Cc1cccc(F)c1)C(=O)O` (stereo unspecified)?
A: T/C (dose: 1.56 mg/kg/injection, schedule: Q01DX009 (ip), vehicle: saline): 97 % of control; T/C (dose: 3.12 mg/kg/injection, schedule: Q01DX009 (ip), vehicle: saline): 97 % of control; T/C [5]: 100 % of control and 96 % of control

Q: Which T/C (dose: 50.0 mg/kg/injection, schedule: Q01DX009 (ip), vehicle: saline + Tween-80 + alcohol) does the source give for `CCCCCCCCCCCCSSC(=S)OC(C)C` here?
A: Its T/C is 100 % of control.

Q: What about the T/C (dose: 100.0 mg/kg/injection, schedule: Q01DX009 (ip), vehicle: saline + Tween-80 + alcohol) of the same compound?
A: Its T/C is 116 % of control.

Q: And the T/C (dose: 200.0 mg/kg/injection, schedule: Q01DX009 (ip), vehicle: saline + Tween-80 + alcohol)?
A: Its T/C is 122 % of control.

Q: What about the T/C (dose: 400.0 mg/kg/injection, schedule: Q01DX009 (ip), vehicle: saline + Tween-80 + alcohol) of the same compound?
A: The T/C was 119 % of control.

Q: For `CC1(/C=C/c2ccccc2)NC(=O)NC1=O` (stereo unspecified), which T/C (dose: 50.0 mg/kg/injection, schedule: Q01DX009 (ip), vehicle: Klucel (hydroxypropylcellulose) (HPC)) is on record?
A: Its T/C is 88 % of control.

Q: What about the T/C [3] of the same compound?
A: Its T/C is 98 % of control.

Q: What about the T/C [4] of the same compound?
A: Its T/C is 104 % of control.
